Laboratory results: PubChem BioAssay (NCI)
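A five-concentration, 48-hour dose response in 96-well plates underlies each endpoint, interpolated linearly between surrounding concentrations. At the TGI there is no net growth.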

Experiments:
Test in all cases: NCI-60 cell line screen, 48 h
[1] = system: EKVX NSCLC
[2] = system: KM12 colon
[3] = system: HCT-15 colon
[4] = system: OVCAR-3 ovarian
[5] = system: SN12C renal
[6] = system: HL-60(TB) leukemia
[7] = system: NCI-H23 lung
[8] = system: M14 melanoma
[9] = system: SNB-75 CNS
[10] = system: MOLT-4 leukemia
[11] = system: SF-268 CNS
[12] = system: M19-MEL melanoma
[13] = system: SK-OV-3 ovarian
[14] = system: COLO 205 colon
[15] = system: HCC-2998 colon
[16] = system: DMS 273 small cell lung
[17] = system: KM20L2 colon
[18] = system: LXFL 529 NSCLC
[19] = system: ACHN renal
[20] = system: RXF-631 renal
[21] = system: K-562 leukemia
[22] = system: LOX IMVI melanoma
[23] = system: SF-539 CNS
[24] = system: UACC-62 melanoma
[25] = system: SNB-19 CNS
[26] = system: HOP-18 NSCLC
[27] = system: OVCAR-8 ovarian
[28] = system: DMS 114 small cell lung
[29] = system: UO-31 renal
[30] = system: UACC-257 melanoma
[31] = system: HT29 colon
[32] = system: OVCAR-5 ovarian
[33] = system: OVCAR-4 ovarian
[34] = system: 786-0 renal
[35] = system: HOP-62 NSCLC
[36] = system: HOP-92 NSCLC
[37] = system: SK-MEL-2 melanoma
[38] = system: SF-295 CNS
[39] = system: CCRF-CEM leukemia
[40] = system: TK-10 renal
[41] = system: DLD-1 colon
[42] = system: SNB-78 CNS
[43] = system: A549 NSCLC
[44] = system: MALME-3M melanoma
[45] = system: RPMI-8226 leukemia
[46] = system: NCI-H460 lung
[47] = system: CAKI-1 renal
[48] = system: HCT-116 colon
[49] = system: SK-MEL-5 melanoma
[50] = system: IGROV1 ovarian
[51] = system: SW-620 colon
[52] = system: RXF 393 renal
[53] = system: XF 498 CNS
[54] = system: SK-MEL-28 melanoma
[55] = system: NCI-H226 lung
[56] = system: NCI-H522 lung
[57] = system: U251 CNS
[58] = system: A498 renal
[59] = system: SR leukemia

## CC1CC2OC(=O)CC2C[C@@H]1O[Si](C)(C)C(C)(C)C (stereo partly specified)
[1]
  TGI: > 100 µM
[2]
  TGI: > 100 µM
[3]
  TGI: > 100 µM
[4]
  TGI: > 100 µM
[5]
  TGI: > 100 µM
[6]
  TGI: 45.5 µM
[7]
  TGI: > 100 µM
[8]
  TGI: > 100 µM
[9]
  TGI: > 100 µM
[10]
  TGI: 56.7 µM
[11]
  TGI: > 100 µM
[12]
  TGI: > 100 µM
[13]
  TGI: > 100 µM
[14]
  TGI: > 100 µM
[15]
  TGI: > 100 µM
[16]
  TGI: > 100 µM
[17]
  TGI: > 100 µM
[18]
  TGI: > 100 µM
[19]
  TGI: > 100 µM
[20]
  TGI: > 100 µM
[21]
  TGI: > 100 µM
[22]
  TGI: > 100 µM
[23]
  TGI: > 100 µM
[24]
  TGI: > 100 µM
[25]
  TGI: > 100 µM
[26]
  TGI: > 100 µM
[27]
  TGI: > 100 µM
[28]
  TGI: 89.4 µM
[29]
  TGI: > 100 µM
[30]
  TGI: > 100 µM
[31]
  TGI: > 100 µM
[32]
  TGI: > 100 µM
[33]
  TGI: > 100 µM
[34]
  TGI: > 100 µM
[35]
  TGI: > 100 µM
[36]
  TGI: 34.7 µM
[37]
  TGI: > 100 µM
[38]
  TGI: > 100 µM
[39]
  TGI: > 100 µM
[40]
  TGI: > 100 µM
[41]
  TGI: > 100 µM
[42]
  TGI: > 100 µM
[43]
  TGI: > 100 µM
[44]
  TGI: > 100 µM
[45]
  TGI: 51.8 µM
[46]
  TGI: > 100 µM
[47]
  TGI: > 100 µM
[48]
  TGI: > 100 µM
[49]
  TGI: 97.4 µM
[50]
  TGI: > 100 µM
[51]
  TGI: > 100 µM

## [C-]#[N+][C@@H]1C2[C@H](CC[C@@]1(C)O)C(=C)CC[C@@H]2[C@@]1(C)CC[C@H](Cl)C(C)(C)O1 (stereo partly specified)
[1]
  TGI: 60.2 µM
[52]
  TGI: 35.4 µM
[2]
  TGI: 25 µM
[3]
  TGI: 18 µM
[4]
  TGI: 9.97 µM
[53]
  TGI: 26.4 µM
[5]
  TGI: 26.3 µM
[6]
  TGI: 5.66 µM
[7]
  TGI: 53.4 µM
[8]
  TGI: 12.6 µM
[9]
  TGI: > 100 µM
[11]
  TGI: > 100 µM
[12]
  TGI: 21.9 µM
[54]
  TGI: > 100 µM
[13]
  TGI: 82.6 µM
[14]
  TGI: 12.8 µM
[15]
  TGI: 36.7 µM
[17]
  TGI: > 100 µM
[18]
  TGI: > 100 µM
[19]
  TGI: 33.2 µM
[20]
  TGI: > 100 µM
[21]
  TGI: 13.5 µM
[22]
  TGI: 16.8 µM
[23]
  TGI: 39.4 µM
[24]
  TGI: 20.1 µM
[25]
  TGI: > 100 µM
[26]
  TGI: 21.9 µM
[27]
  TGI: 21 µM
[28]
  TGI: 9.08 µM
[29]
  TGI: 7.17 µM
[30]
  TGI: 45.4 µM
[31]
  TGI: 29.8 µM
[55]
  TGI: 20.8 µM
[33]
  TGI: 33.7 µM
[34]
  TGI: 23.8 µM
[37]
  TGI: 27.8 µM
[56]
  TGI: 22.4 µM
[57]
  TGI: 36.3 µM
[38]
  TGI: 28.3 µM
[39]
  TGI: 21.8 µM
[40]
  TGI: 84.2 µM
[58]
  TGI: 41.7 µM
[41]
  TGI: 50.8 µM
[43]
  TGI: 77.6 µM
[44]
  TGI: 48.1 µM
[45]
  TGI: 20.9 µM
[46]
  TGI: 52.6 µM
[47]
  TGI: 27.7 µM
[48]
  TGI: 12.8 µM
[49]
  TGI: 15.7 µM
[50]
  TGI: 41.7 µM
[51]
  TGI: 31.1 µM

## C=C1CCC2C(C)(CO)C(O)CCC2(C)C1CC(O)/C(=C/CO)C(=O)O (stereo unspecified)
[52]
  TGI: > 100 µM
[2]
  TGI: > 100 µM
[3]
  TGI: > 100 µM
[5]
  TGI: > 100 µM
[6]
  TGI: > 100 µM
[8]
  TGI: > 100 µM
[9]
  TGI: > 100 µM
[10]
  TGI: > 100 µM
[11]
  TGI: > 100 µM
[12]
  TGI: > 100 µM
[13]
  TGI: > 100 µM
[14]
  TGI: > 100 µM
[15]
  TGI: > 100 µM
[16]
  TGI: > 100 µM
[17]
  TGI: > 100 µM
[18]
  TGI: > 100 µM
[19]
  TGI: > 100 µM
[20]
  TGI: > 100 µM
[21]
  TGI: > 100 µM
[22]
  TGI: > 100 µM
[23]
  TGI: > 100 µM
[24]
  TGI: > 100 µM
[25]
  TGI: > 100 µM
[26]
  TGI: > 100 µM
[27]
  TGI: > 100 µM
[28]
  TGI: > 100 µM
[29]
  TGI: > 100 µM
[30]
  TGI: > 100 µM
[31]
  TGI: > 100 µM
[32]
  TGI: > 100 µM
[33]
  TGI: > 100 µM
[34]
  TGI: > 100 µM
[35]
  TGI: > 100 µM
[36]
  TGI: > 100 µM
[37]
  TGI: > 100 µM
[56]
  TGI: > 100 µM
[57]
  TGI: > 100 µM
[38]
  TGI: > 100 µM
[39]
  TGI: > 100 µM
[40]
  TGI: > 100 µM
[59]
  TGI: > 100 µM
[58]
  TGI: > 100 µM
[41]
  TGI: > 100 µM
[42]
  TGI: > 100 µM
[43]
  TGI: > 100 µM
[44]
  TGI: > 100 µM
[45]
  TGI: > 100 µM
[46]
  TGI: > 100 µM
[47]
  TGI: > 100 µM
[48]
  TGI: > 100 µM
[49]
  TGI: > 100 µM
[50]
  TGI: > 100 µM
[51]
  TGI: > 100 µM
